Among the data in PubChem BioAssay AID1117319 (Southern Research Institute, 2015) are IC50 values, retold here.

Molecules are shown by their SMILES. Inconclusive results are not listed.

The target in the test is Virion infectivity factor (Human immunodeficiency virus type 1 group M subtype B (isolate BH10)) + Virion infectivity factor (Human immunodeficiency virus type 1 group M subtype B (isolate BRU/LAI)) + Virion infectivity factor (Human immunodeficiency virus type 1 group M subtype B (isolate PCV12)) + Virion infectivity factor (Human immunodeficiency virus type 1 group M subtype B (isolate HXB2)) + DNA dC->dU-editing enzyme APOBEC-3G (Homo sapiens) (UniProt P69720+P69721+P69722+P69723+Q9HC16). Kind of test: HIV-1 Vif–A3G interaction blockers – biochemical, TR-FRET, GST-Vif 1-94, biotin-A3G peptide, dose response retest, primary screen (AID 1117319).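 Further: Vif residues 1-94 fused to GST binding biotinylated APOBEC3G peptide 110-148.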 As to conditions: TR-FRET GST-Vif / biotin-A3G peptide binding. A general note: In TR-FRET formats the signal depends on donor and acceptor labels being close together.
In general, IC50 refers to the point on the concentration scale where inhibition reaches its midpoint. With `CCN1C(=O)/C(=C\c2ccco2)C(C(=O)OC)=C1C`, the IC50 was 23 µM. The figure for `CNC[C@H](O)c1ccc(O)c(O)c1` is 1.16 µM; for `N=C1C=CC(=C(c2ccc(N)cc2)c2ccc(N)cc2)C=C1` it is 3.43 µM. The figure for `O=C1C=C(c2c(O)ccc3ccccc23)c2ccccc2C1=O` is 2.54 µM; for `CN(C)c1ccc(NC(=O)CSc2nc3ccccc3c(=O)n2C2CCCCC2)cc1` it is 21.7 µM. For `CCOC(=O)C1=C(N)n2c(s/c(=C\c3ccco3)c2=O)=C(C(=O)OC(C)C)C1c1ccco1` (centres undefined) the value was 1.23 µM; for `O=C(N/N=C/c1cn(Cc2cccc(F)c2)c2ccccc12)c1cc(O)cc(O)c1`, 3.48 µM; for `C/C(=N\Nc1ccc([N+](=O)[O-])cc1[N+](=O)[O-])c1cc2c(ccc3ccccc32)oc1=O`, 2.92 µM. Regarding `CC(=O)Nc1cc(NC(C)=O)cc(C(=O)N2CCCC3CCCCC32)c1` (centres undefined), the IC50 is 9.5 µM. The figure for `O=C(O)C[C@@H]1C(=O)O[C@@H]2C(COC(=O)c3cc(O)c(O)c(O)c3)O[C@@H](OC(=O)c3cc(O)c(O)c(O)c3)[C@@H](OC(=O)c3cc(O)c(O)c4c3[C@H]1[C@H](O)C(=O)O4)[C@H]2OC(=O)c1cc(O)c(O)c(O)c1` (some centres undefined) is below 0.195 µM; for `CCN(CC)c1ccc(/C=N/n2c(C)cc(C)cc2=O)cc1` it is 1.65 µM; for `CCOc1cccc(=O)c2c(C)n(Cc3ccco3)c(C)c12` it is 0.45 µM. `Cn1cccc1/C=C1\C(=O)NC(=O)N(Cc2ccco2)C1=O`: the IC50 is 9.46 µM. For `CN(CC(=O)Nc1cccc(F)c1)C(=O)c1cc(-c2ccco2)nc2ccccc12` the value was 4.8 µM; for `CCc1ccc2nc(N3CCN(C)CC3)c(C#N)cc2c1`, 33.8 µM; for `CCOC(=O)c1cnn2c(N)c(C#N)nnc12`, 21.4 µM. As for `Cc1cccc(N2C(=O)/C(=C/c3ccc(CN(CCC#N)S(C)(=O)=O)o3)C(=O)NC2=S)c1`, the 50% inhibitory concentration (IC50) is 22.9 µM.

As for `CCOc1ccc(NC(=O)CCS(=O)(=O)c2ccc(Br)cc2)cc1`, the IC50 was 14.2 µM. The figure for `O=C1CC(/C=C/c2ccco2)=Nc2ccccc2N1` is 1.69 µM; for `O=C(O)CC(Cn1cnnn1)c1ccccc1` (centres undefined) it is 58.8 µM; for `CCOC(=O)C1=C(N)n2c(s/c(=C\c3ccco3)c2=O)=C(C(=O)OCC)C1c1ccco1` (centres undefined) it is 1.41 µM. The figure for `O=C(c1ccc2nc(-c3ccco3)c(-c3ccco3)nc2c1)N1CCN(c2ncccn2)CC1` is 1.03 µM; for `Cc1cc(/C=C2\SC(=S)NC2=O)c(C)n1C` it is 36.2 µM; for `COc1ccc(CN2C(=O)NC(=O)/C(=C/c3ccc([N+](=O)[O-])o3)C2=O)cc1` it is 4.49 µM.

With `O=C(O)CCc1ccc(S(=O)(=O)Nc2cc(C(F)(F)F)ccc2N2CCCC2)cc1`, the 50% inhibitory concentration (IC50) is 14.4 µM.

With `CCc1c(C)sc(NC(=O)OC)c1C(=O)N1CCCCC1`, the IC50 was 42.7 µM. For `Oc1ccc2c(c1)C1CCCC1(N1CCOCC1)O2` (centres undefined) the value was 4.31 µM; for `O=C1OC(c2ccc(F)cc2)=C/C1=C\c1ccc([N+](=O)[O-])o1`, 8.61 µM.

Take `CC(=O)N(C1=C(Cl)C(=O)c2ccccc2C1=O)c1ccc(C(=O)O)cc1`: the concentration for half-maximal inhibition (IC50) was 59.7 µM. The figure for `O=[N+]([O-])c1cc(Br)c(O)c(C=Nc2ccc(N3CCOCC3)cc2)c1` is 7.19 µM; for `O=C(O)c1ccc(Cl)c2c1C1C=CCC1C(c1ccccn1)N2` (centres undefined) it is 0.82 µM.

As to `Cc1cc(C)c(C(=O)/C=C/c2ccco2)c(=O)[nH]1`, the IC50 was 8.81 µM. The figure for `CCc1cc2cc(C)cc(C)c2nc1SCC(=O)N1CCN(C(=O)c2ccco2)CC1` is 12.6 µM; for `COc1ccccc1NCCC(=O)OCC(=O)NCc1ccco1` it is 13.9 µM. For `Oc1ccc(/C=N/N2CCOCC2)c(O)c1O`, the 50% inhibitory concentration (IC50) is 12.5 µM.

As for `CC1=Nc2cccc3cccc(c23)N1`, the 50% inhibitory concentration (IC50) was 0.53 µM. The figure for `Cc1cc(C(=O)O)ccc1-n1c(C)ccc1C` is 5.16 µM; for `CCOC(=O)C1=C(COC(=O)/C=C/c2ccco2)NC(=O)NC1C` (centres undefined) it is 10.9 µM. The figure for `Oc1ccc(/C=N/N2CCCCC2)c(O)c1O` is 19.2 µM.
